Source: patent US8013190B2, “Chemical composition with borane clusters for use as an HIV protease inhibitor” (Vysoka Skola Chemicko-Technologicka V Praze, priority 2004, dated 2011)
pIC50, pKi: −log10 of the molar value. Like-named read-outs stand apart in the source and are kept apart here.

Key:
wild type HIV-1 protease = biological target: T1, wild type HIV-1 protease (Human immunodeficiency virus type 1 group M subtype B, UniProt P12497); assay: Inhibition of pure recombinant HIV protease with chromogenic peptide substrate (spectrophotometric); format: biochemical; details: for IC50: wild type HIV-1 protease, pH 4.7
T1 construct: using pure recombinant HIV protease and chromogenic peptide substrate
Protocol: (§1) Initially, known and novel compounds were tested as to their ability to inhibit specific activitity of HIV protease in vitro using pure recombinant HIV protease and chromogenic peptide substrate derived from amino acid sequence of one of the sites of cleavage of viral polyprotein. Testing was performed using the method published by one of the co-inventors of this invention (Konvalinka, J., Litera, J., Weber, J., Vondrásek, J., Hradilek, M., Soucek, M., Pichová, I., Majer, P., Strop, P., Sedlácek, J., Heuser, A. -M., Kottler, H. and Kraeusslich, H. -G. (1997). Eur. J. Biochem. 250, 559-566). […] The reaction course is observed spectrophotometrically as decrease of the absorbance at 305 nm.
The mechanism of action of tested compounds (inhibition type) were determined from dependence of initial reaction rate on substrate concentration at different inhibitor concentrations (Lineweaver-Burke plot). Dependence of initial enzyme reaction rate on substrate concentration is measured at various inhibitor concentrations (here 0 and 15 μM). The measurements were performed at pH 4.7, 37° C. in 0.1 M acetate buffer containing 0.3M NaCl. y axis: reciprocal value of initial enzyme reaction rate, x axis: reciprocal value of substrate concentration (mol/dm^3).

[1] = system: HIV proviral clone NL 4-3; assay: HIV infectivity inhibition in tissue cultures transfected with proviral clone NL4-3, titration on TZM reporter cells; format: cell-based; details: for effect on virus infectivity: 293 T cells transfected by NL 4-3, FIG. 5
Protocol: The antiviral activity of compounds GB-8, GB-12 and GB-16 in tissue cultures was analyzed using two variations of a published procedure (Benyoucef S, Hober D, Shen L, Ajana F, Gerard Y, Bocket-Mouton L, Mouton Y, Wattre P. (1996) Microbiol Immunol. 40(5), 381-8). The production of infectious HIV particles and influences of HIV protease inhibitors on the infectivity was directly determined by these assays.
For testing of compounds GB-8, GB-12 and GB-16, HeLa cells were transfected by DNA encoding pNL-43 strain of HIV virus that contained beta-galactosidase gene in the site of viral nef gene. All transfections were performed in duplicate. Medium was replaced the next day following the transfection, and protease inhibitors dissolved in DMSO were added into fresh medium. The control was incubated in the same DMSO concentration as tested cells. The supernatant of transfected cells was used in next round for reporter cells infection. Infectivity was quantified by enzyme beta-galactosidase activity in infected cells and the infected cells were visualised using chromogenic beta-galactosidase substrate (X-gal). Viral proteins of newly created virions were separated by SDS PAGE and immunochemically visualised using antibodies against HIV capsid protein (Western blot).
In paralel experiments, HIV was produced in 293 T cells transfected by proviral clone NL 4-3. All transfections were performed in duplicate. Medium was replaced the next day following the transfection, and protease inhibitors dissolved in DMSO were added into fresh medium. The control was incubated in the same DMSO concentration as tested cells. Viral infectivity was quantified by titration of the cell supernatant by TZM cell (reporter cells bearing in their genome LTR promotor from HIV bound with beta-galactosidase gene, activated by Tat protein produced by the virus). After two days following the infection the reporter cells were lysed and fixed by methanol/acetone mixture. Beta-galactosidase activity of infected cells was visualised by blue color after chromogenic substrate X-gal addition.

cathepsin D = cathepsin D (Homo sapiens, UniProt P07339); assay: Inhibition of recombinant protease, chromogenic substrate; format: biochemical
Protocol: as §1, with “nm. IC50 values of tested compounds were calculated from experimental data, as taught in (Majer, P., Urban, J., Gregorová, E., Konvalinka, J., Novek, P., Stehlíková, J., Andreánsky, M., Sedlácek, J. and Strop, P. (1993) Arch.Biochem.Biophys. 304, 1-8) and are shown in Table 1.” for “nm.”
(§2) Inhibition testing of GB-16 was performed also for wild type HIV-2 protease, mutant HIV-1 PR 3/1 and cathepsin D. Results are shown in Table 2.

mutant HIV-1 PR 3/1 = assay: as above; format: biochemical
Protocol: as §1, with “nm. IC50 values of tested compounds were calculated from experimental data, as taught in (Majer, P., Urban, J., Gregorová, E., Konvalinka, J., Novek, P., Stehlíková, J., Andreánsky, M., Sedlácek, J. and Strop, P. (1993) Arch.Biochem.Biophys. 304, 1-8) and are shown in Table 1.” for “nm.”
as §2

wild-type HIV-2 PR = biological target: T2, wild-type HIV-2 PR (Human immunodeficiency virus type 2 subtype A, UniProt P04584); assay: as above; format: biochemical
T2 construct: performed also for wild type HIV-2 protease, mutant HIV-1 PR 3/1 and cathepsin D
Protocol: as §1, with “nm. IC50 values of tested compounds were calculated from experimental data, as taught in (Majer, P., Urban, J., Gregorová, E., Konvalinka, J., Novek, P., Stehlíková, J., Andreánsky, M., Sedlácek, J. and Strop, P. (1993) Arch.Biochem.Biophys. 304, 1-8) and are shown in Table 1.” for “nm.”
as §2

[2] = biological target: T3, HIV PR 15 (M46I, A71V, V82T, I84V) (Human immunodeficiency virus type 1 group M subtype B, UniProt P12497, A559V/I572V/M534I/V570T); format: biochemical, HIV-1; details: read-out: Inhibition constants Ki
T3 construct: using pure recombinant HIV protease and chromogenic peptide substrate
Protocol: as §1

[3] = biological target: T4, HIV PR 5/1 (L10I, I15V, E35D, N37S, R41K, I62V, L63P, A71V, G73S, L90M) (Human immunodeficiency virus type 1 group M subtype B, UniProt P12497, A559V/E523D/G561S/I503V/I550V/L498I/L551P/L578M/N525S/R529K); format: biochemical, HIV-1; details: read-out: Inhibition constants Ki
T4 construct: using pure recombinant HIV protease and chromogenic peptide substrate
Protocol: as §1

[4] = biological target: T5, HIV PR K4 (L10I, L24I, L33F, M46L, I54V, L63P, A71V, V82A, I84V) (Human immunodeficiency virus type 1 group M subtype B, UniProt P12497, A559V/I542V/I572V/L498I/L512I/L521F/L551P/M534L/V570A); format: biochemical, HIV-1; details: read-out: Inhibition constants Ki
T5 construct: using pure recombinant HIV protease and chromogenic peptide substrate
Protocol: as §1

virus strain NL4-3 = assay: HIV infectivity inhibition in PM1 cell cultures infected by NL4-3, titration on TZM-cells; format: cell-based; details: 6,6 to 60 μM, 40 h
Protocol: For testing of compound GB-48, PM1 cell cultures infected by virus strain NL4-3 were split 2 days post infection 1 to 10 with fresh, uninfected cells. To remove unbound virus cells were washed with pre-warmed medium four hours post infection. Cells were subsequently incubated for 40 h with a GB-48 dissolved in DMSO at a final concentration from 0.74 to 60 μM. Control cells were incubated with the same amount of DMSO as the GB-48 treated cells. To harvest the free virus cells were centrifuged at 1500 rpm for 5 min and 10 μl of the supernatants were used for titration. Changes in viral infectivity were analysed by titration of the supernatants on TZM-cells as described above. Two days post infection TZM-cells were lysed and fixed with methanol/aceton. The beta-galactosidase activity of infected cells was visualised by blue stain upon X-Gal addition. All titrations were done in duplicate assays. The viral titer and standard deviation was calculated from three independent titrations. Example of the activity testing is given on FIG. 6. […] At these concentrations drops in viral titer of at least 3 orders of magnitude in virus infectivity were observed.

[5] = wild type, Table 3, read-out: Inhibition constants Ki

Chain of cathepsin D (P07339 65-412, species assumed): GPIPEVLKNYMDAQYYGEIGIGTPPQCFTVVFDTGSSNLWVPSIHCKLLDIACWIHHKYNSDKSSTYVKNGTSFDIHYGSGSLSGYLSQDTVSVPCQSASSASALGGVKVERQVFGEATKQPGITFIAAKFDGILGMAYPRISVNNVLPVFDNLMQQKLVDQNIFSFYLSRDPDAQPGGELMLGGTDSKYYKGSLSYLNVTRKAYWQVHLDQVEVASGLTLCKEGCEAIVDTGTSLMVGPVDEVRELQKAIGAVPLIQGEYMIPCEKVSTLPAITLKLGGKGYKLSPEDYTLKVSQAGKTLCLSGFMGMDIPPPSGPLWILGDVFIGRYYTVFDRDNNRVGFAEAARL
T2 sequence (P04584 514-612 limits assumed): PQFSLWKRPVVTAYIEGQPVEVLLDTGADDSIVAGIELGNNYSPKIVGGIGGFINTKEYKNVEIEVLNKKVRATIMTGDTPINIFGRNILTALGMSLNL

In the case of “[8,8′-μ-O-(1,2-C2B9H10)(1′,2′-C2B9H10)-3,3′-Co]Na [GB-12]”, the IC50 (wild type HIV-1 protease; Table 1 values in μM) was 5.2 µM and the “effect on virus infectivity” value [1] was “block the virus infectivity”.
In the case of “[8-(O-P(═O)(OH)2)-(1,2-C2B9H10)(1′,2′-C2B9H11)-3,3′-Co]Na.nH2O [GB-16]”, the “mechanism of action (inhibition type), Lineweaver-Burke plot” value (wild type HIV-1 protease; inhibitor 0 and 15 μM, pH 4.7, 37° C.) was “competitive inhibitor”, the IC50 (wild type HIV-1 protease; Table 1 values in μM) was 6.2 µM and the pIC50 (wild type HIV-1 protease; wild-type HIV-1 PR, Table 2) was 5.21. For the same substance, the pKi (wild type HIV-1 protease; wild-type HIV-1 PR, Table 2, read-out: Ki) was 4.79, the pIC50 (cathepsin D) was 4.48 and the pKi (cathepsin D) was 4.76. The pIC50 (mutant HIV-1 PR 3/1) was 4.87, the pKi (mutant HIV-1 PR 3/1) was 5.44 and the pIC50 (wild-type HIV-2 PR) was 4.81. The pKi (wild-type HIV-2 PR) was 5.13, the “HIV infectivity, % of the initial value” ([1]; 10 μM solution, 293 T cells / TZM reporter cells) was ~27% and the “effect on virus infectivity” value [1] was “block the virus infectivity”.
With “[8-(OH-1,2-C2B9H10)(1′,2′-C2B9H11)-3,3′-Co]Na.nH2O [GB-8]” the IC50 (wild type HIV-1 protease; Table 1 values in μM) was 13.5 µM and the “effect on virus infectivity” value [1] was “block the virus infectivity”.
Work on “[(1,2-C2B9H10)-3,3′-Co(1′,2′-C2B9H11)-8-(OCH2CH2)2NH(CH2CH2CH2CH3)-CH2CH2OCH2CH2-8″-O-(1″,2″-C2B9H10)-3″,3′″-Co(1′″,2′″-C2B9H11)]Na [GB-48]” yielded an IC50 (wild type HIV-1 protease; Table 1 values in nM) of 0.1 µM, a pKi (wild type HIV-1 protease; [5]) of 8.66 and a pKi [2] of 8.05. For the same substance, the pKi [3] was 8.34, the pKi [4] was 7.62 and the “drops in viral titer” value (virus strain NL4-3) was “at least 3 orders of magnitude”. The “effect on virus infectivity” value (virus strain NL4-3) was “strongly inhibited virus infectivity”.
With “[(1,2-C2B9H10)-3,3′-Co(1′,2′-C2B9H11)-8-(OCH2CH2)2NH-CH2CH2OCH2CH2-8″-O-(1″,2″-C2B9H10)-3″,3′″-Co(1′″,2′″-C2B9H11)]Na [GB-80]” the IC50 (wild type HIV-1 protease; Table 1 values in nM) was 0.14 µM, the pKi (wild type HIV-1 protease; [5]) was 8.31 and the pKi [2] was 7.66. For the same substance, the pKi [3] was 7.40 and the pKi [4] was 7.89.
With “[(8-(C6F5O-(CH2)5O)-1,2-C2B9H10)(1′,2′-C2B9H11)-3,3′-Co]Na [GB-54]” the IC50 (wild type HIV-1 protease; Table 1 values in nM) was 0.2 µM.
“[(8-(C6F5O-(CH2-CH2O)2)-1,2-C2B9H10)(1′,2′-C2B9H11)-3,3′-Co]Na [GB-45]” was tested, and the IC50 (wild type HIV-1 protease; Table 1 values in nM) was 0.16 µM.
“[(8-(C6H4(CO)(CO)N-(CH2-CH2O)2)-1,2-C2B9H10)(1′,2′-C2B9H11)-3,3′-Co]Na [GB-64]” gave an IC50 (wild type HIV-1 protease; Table 1 values in nM) of 0.84 µM.
With “[(8-(C6H4(CO)(SO2)N-(CH2-CH2O)2)-1,2-C2B9H10)(1′,2′-C2B9H11)-3,3′-Co]Na [GB-63]” the IC50 (wild type HIV-1 protease; Table 1 values in nM) was 0.13 µM.
In the case of “[(8-(C6H5)-(CH2-CH2O)2)-1,2-C2B9H10)(1′,2′-C2B9H11)-3,3′-Co]Na [GB-40]”, the IC50 (wild type HIV-1 protease; Table 1 values in μM) was 1.2 µM.
Work on “[(8-(NH2(C6H5CH2)-(CH2-CH2O)2)-1,2-C2B9H10)(1′,2′-C2B9H11)-3,3′-Co] [GB-103]” yielded an IC50 (wild type HIV-1 protease; Table 1 values in μM) of 1.4 µM.
In the case of “[(8-(NH2(CH2CH2CH2CH3)-(CH2-CH2O)2)-1,2-C2B9H10)(1′,2′-C2B9H11)-3,3′-Co] [GB-102]”, the IC50 (wild type HIV-1 protease; Table 1 values in μM) was 2.2 µM.
Substance “[(8-(NH3-(CH2-CH2O)2)-1,2-C2B9H10)(1′,2′-C2B9H11)-3,3′-Co] [GB-69]” has an IC50 (wild type HIV-1 protease; Table 1 values in μM) of 2.2 µM.
“[(8-(calix[4]arene-O-(CH2-CH2O)2)-1,2-C2B9H10)(1′,2′-C2B9H11)-3,3′-Co]Na [GB-72]” showed an IC50 (wild type HIV-1 protease; Table 1 values in nM) of 0.21 µM.
For “[(8-Cl-1,2-C2B9H10)(8′-Cl-1′,2′-C2B9H10)-3,3′-Co]Na [GB-96]”, the IC50 (wild type HIV-1 protease; Table 1 values in μM) was 1.08 µM.
For “[(8-HO-(CH2-CH2O)2-1,2-C2B9H10)(1′,2′-C2B9H11)-3,3′-Co]Na [GB-1]”, the IC50 (wild type HIV-1 protease; Table 1 values in μM) was 6.1 µM.
“[(8-I-1,2-C2B9H10)(8′-I-1′,2′-C2B9H10)-3,3′-Co]Na [GB-97]” showed an IC50 (wild type HIV-1 protease; Table 1 values in nM) of 0.87 µM.
“[((1,2-C2B9H10)-3,3′-Co(1′,2′-C2B9H11)-8-(OCH2CH2)2O)3-NH]Na2 [GB-79]” showed an IC50 (wild type HIV-1 protease; Table 1 values in nM) of 0.13 µM.
Substance [(C2B9H10)2-3-Fe]Na.4H2O [GB-23] has an IC50 (wild type HIV-1 protease; Table 1 values in nM) of 0.55 µM.
